The values below come from patent publication US8920851B2, “Treatment of neurodegenerative diseases” (Velacor Therapeutics Pty Ltd, priority 2006, dated 2014).

“Also recorded” adds a separate entry of the source.

In one data set the test system is Akt. Kind of data set: Akt phosphorylation by immunoblot in PC3 prostate carcinoma cells. It counts as cell-based, human. Particulars: for Akt phosphorylation at Ser473: PC3 cells, 500 μM of each compound, various timepoints. The procedure: Such dephosphorylation may be the result of a direct inhibitory effect on the Akt protein itself, or alternatively, can be similarly achieved indirectly by boosting a negative regulator or inhibiting a positive regulator of Akt phosphorylation. […] PC3 prostate carcinoma cells were plated in 100 mm dishes, and when 70-80% confluent serum starved overnight. […] Cells were lysed, and the level of Akt Ser473 phosphorylation determined by immunoblot analysis with an activation specific antibody, and comparison made to levels of Akt protein expressed. To determine the effect on purified Akt, similarly plated but untreated PC3 cells were lysed in RIPA (minus phosphatase inhibitors), a stringent cell lysis buffer that minimizes maintenance of protein-protein complexes. […] The immunoprecipitated protein was then resolved and the level of activated Akt determined by immunoblot analysis as described above.
A reduction in net Akt activity could be achieved indirectly by either preventing the initial Akt phosphorylation, or alternatively, increasing Akt dephosphorylation [Kohn et. al. 1996]. […] Initially okadaic acid, a polyether toxin from red-tide algae (and causative agent of diarrhoetic shellfish poisoning) which inhibits the phospho-protein phosphatases PP1 and PP2A, two phosphatases implicated in the regulation of Akt dephosphorylation was used [Fernandez et al., 2002]. 5×10^5 PC3 prostate carcinoma cells were plated per well of a 6 well plate, allowed attach for 8 h, and then serum starved overnight. […] Lysed cells were resolved by SDS-PAGE, then probed for Akt phosphorylation at the Ser473 residue by immunoblot analysis with an antibody that specifically recognizes Akt when phosphorylated at this site, and comparison made with the total levels of Akt protein expressed (FIG. 2A).
This panel included tautamycin 500 nM (PP1), okadaic acid 500 nM (low dose PP2A>PP1), endothall A (PP2A) 100 μM, calyculin A 2 nM (low dose PP1>PP2A), calyculin A 10 nM (high dose inhibits PP1 and PP2A) and cyclosporine A 400 ng/ml (PP2B). […] Again, lysed cells were resolved by SDS-PAGE, then membranes probed for Akt phosphorylation at the Ser^473 residue by immunoblot analysis with an antibody that specifically recognizes Akt when phosphorylated at this site, and comparison made with the total levels of Akt protein expressed.
5×10^5 PC3 prostate carcinoma cells were plated per well in a 6-well plate, allowed to attach for 8 h, and then serum starved overnight. […] Equal amounts of whole cell lysates were resolved, and then subjected to immunoblot analysis to determine the level of phosphorylated Akt Ser^473. Comparison was then made with the total level of Akt protein expressed.
The phosphorylation status of Akt in whole cell lysates was determined using activation specific antibodies.
Other inorganic (sodium selenite, selenium dioxide, selenium sulphide and selenious acid) and organic (methylselenocysteine, selenocystine) selenium species were tested for their ability to affect Akt activation. All forms were dissolved in water with the exception of selenium sulphide which was solubilised in DMSO, and added to serum starved PC3 cells at a concentration of 500 μM for 1 hour, Whole cell lysates were then resolved, and the activation status of Akt determined by immunoblotting with an antibody that specifically recognizes Akt when phosphorylated at the Ser473 site, as well as the total level of Akt expression (pan Akt). To quantify the degree of Akt activation, immunoblots were digitalised, and the ratio of phosphorylated Akt to total Akt determined by densitometry.

Another data set deals with human TAU441. The note with it: TMHT mice. The procedure:
(§1) This was done every Monday, Wednesday and Friday, and the water was weighed on exchange to measure consumption.
After blood sampling transgenic mice were intracardially perfused with 0.9% sodium chloride. Brains were rapidly removed, and the right half was immersion fixed for 24 hours in freshly prepared 4% Paraformaldehyde and embedded in paraffin for histological investigations. The left hemisphere was frozen on dry ice and stored at −80° C. for possible later biochemical analysis.
In initially nine (9) brain hemispheres (≧3 per Tg animal group) histological evaluations were performed to qualitative and quantitative evaluate TAU pathology.
Fifteen (15) coronal consecutive sections (Leica SM 2000R) were cut (5 μm thick) at each of 5 different brain layers between Bregma −1.82 and −1.34 mm, which were chosen according to the morphology atlas “The Mouse Brain” from Paxinos and Franklin (2 ^d edition), for Gallyas staining and for determination TAU pathology with specific antibodies (AT180 and HT7). Tissues of all transgenic animals investigated were handled in exactly the same way to avoid bias due to variation of this procedure. Remaining brain hemispheres or tissue not used are saved and stored until the sponsor has decided to how to proceed or until end of the study.
TAU depositions were determined using the monoclonal TAU-antibodies AT180 and HT7 (Pierce Endogen®).
Five (5) μm thick coronal paraffin sections from each of the five different layers were stained with the above described monoclonal mouse anti-human TAU-antibodies (AT180—1:100; HT7—1:1000) and visualized using a secondary anti-mouse Cy3 (1:500, Jackson Laboratories®). The detailed staining protocols are set out below:
AT180 incubation protocol for the determination of human PHF-TAU depositions • 1.) Deparaffinize and hydrate tissue sections through Tissue Clear (Sakura®) and graded alcohol (Merck®) series. • 2.) Wash for 2 minutes in Aqua bidest (Fresenius-Kabi®) • 3.) Place tissue sections for antigen unmasking in 10% citrate buffer (Labvision®) for 15 minutes at 95° C. in a steamer and to cool down for 15 minutes at room temperature. • 4.) Wash sections for 2×5 minutes in PBS. • 5.) Block endogenous peroxidase with 1% hydrogen peroxide (Linaris®) in methanol (Merck®) for 10 minutes at room temperature. • 6.) Wash sections for 2×5 minutes in PBS. • 7.) Block unspecific bindings with MOM-Blocking Reagent (Vector®) for 60 minutes at room temperature in a damp chamber. • 8.) Wash sections for 2×5 minutes in PBS. • 9.) Block unspecific bindings with MOM-Diluent (Vector®) for 5 minutes at room temperature. • 10.) Incubate with AT180 (Pierce Endogen®; 1:100 in MOM-Diluent) for 60 minutes at room temperature in a damp chamber. • 11.) Wash sections for 3×5 minutes in PBS. • 12.) Block unspecific bindings with 10% Non-Immune Goat-Normal Serum (Dako®) for 10 minutes at room temperature in a damp chamber. • 13.) Wash sections for 2×5 minutes in PBS. • 14.) Incubate with Cy 3 Goat Anti-Mouse (Jackson®; 1:500 in MOM-Diluent) for 60 minutes at room temperature in a damp chamber. • 15.) Wash sections for 5 minutes in PBS. • 16.) Wash sections for 5 minutes in Aqua bidest. • 17.) Cover sections with Moviol and coverslips.

In data set [1] the test system is TAU441 transgenic (Tg) TMHT mice.
Excerpt: as §1

Where [2] appears, read: serum free PC3 cells, 500 μM, various times.

As to `O=[Se](=O)(O)O` [sodium selenate], the “Akt phosphorylation at Ser473” value with Akt was “profoundly inhibited Akt phosphorylation”. In the data set on Akt (listed as selenate), the “Akt phosphorylation at Ser473” value is listed as “inhibited Akt phosphorylation”. Also, the “Akt Ser473 phosphorylation” value with Akt (intact serum starved PC3 cells, sodium selenate 500 μM, 1 h) is “profound reduction in Akt phosphorylation; also recorded: markedly reduces the chronically high levels of Akt phosphorylation; also recorded: marked decrease in the phosphorylation of Akt; also recorded: markedly reduced the level of Akt phosphorylation”. Further, in the data set with Akt (setting [2]), the “phosphorylation of Akt at Ser473 and Thre308, after the initial boost” value was “marked and prolonged deactivation”; the “total cellular Akt levels (pan Akt)” value is recorded as “remained essentially unchanged”. In addition, the “phosphorylation of Akt at Ser473 and Thre308, early” value with Akt (serum free PC3 cells, 500 μM, within 10 minutes of exposure) was “transient boost in phosphorylation of Akt”. In addition, the “Akt activation: ratio of phosphorylated Akt to total Akt versus control” value in the data set on Akt (serum starved PC3 cells, 500 μM, 1 hour, densitometry) is reported as “inhibits activation of Akt”. Moreover, the “reduction in Akt phosphorylation at Ser473 compared to untreated cells” value in the data set on Akt (serum starved PC3 cells, 500 μM, 1 hour, densitometry, p<0.05) was “greater than 80%”. In the data set on human TAU441, the “percentage of relative TAU area in the Amygdala (AT180), versus untreated baseline” value is recorded as “not versus untreated baseline group”. The “percentage of relative HT7-TAU area in the hippocampus” value with human TAU441 (1.2 mg, versus vehicle (ANOVA p<0.05, T-Test p=0.04) and untreated baseline (ANOVA p<0.05)) is reported as “significantly reduced”. In the data set with human TAU441 (1.2 mg, versus vehicle (T-Test p=0.04)), the “percentage of relative AT180-TAU area in the hippocampus” value is “reduced”. In the data set with human TAU441 (ANOVA p<0.05, T-Test p=0.0045), the “percentage of relative TAU area in the Amygdala (AT180), versus vehicle” value is “significantly reduced percentage of relative HT7-TAU area”. Besides, the “TAU load and TAU positive cells in the amygdala and neuronal layer of the hippocampal CA1 region” value in the data set with human TAU441 (AT180 and HT7 immunoreactivity) is recorded as “visibly reduced TAU load as well as TAU positive cells”. Further, the “percentage of relative HT7-TAU area in the Amygdala” value in the data set on human TAU441 (versus untreated baseline (ANOVA p<0.01) and vehicle (ANOVA p<0.05, T-test p=0.0018)) is reported as “significantly reduced percentage of relative HT7-TAU area”. Moreover, the “Open Field activity parameters (activity, hyperactivity, rearing behaviour)” value in data set [1] (1.2 mg per 100 mL drinking water, 12 weeks) is recorded as “uninfluenced”. Moreover, the “finding the platform in the Morris Water Maze versus three months younger baseline group” value in data set [1] (day 1) was “faster”. Also, the “finding the platform in the Morris Water Maze versus vehicle” value in data set [1] (day 1, 2 and 3, p≦0.01) is on record as “faster”. Also, in data set [1] (drinking water, 1.5 months after treatment start, versus vehicle, T-test p=0.019), the “thigmotaxis: abidance in the centre of the Open Field box, turn 1” value is listed as “significant higher abidance in the centre of the Open Field box”. For the same compound, in data set [1] (drinking water, 12 weeks), the “curiosity behaviour (Nose poke)” value was “remained unchanged”; the “motor performance (Rota Rod)” value is given as “remained unchanged”; the “negative side effects and premature deaths” value is on record as “did not lead to any negative side effects or caused any premature deaths”. Further, the “thigmotactic behaviour, turn 2” value in data set [1] (drinking water, end of treatment) is on record as “normalized to the level of the vehicle controls”.
